Results from the NIST ThermoML archive (doi:10.1021/acs.jced.7b01097).
± gives the expanded uncertainty stated by the source.

Conditions: 3000 kPa, Coriolis flow meter

CCCCCCCCCC [decane]
Conditions | mass density [kg/m3]
285.3 K, Liquid | 736.8 ± 15
313.1 K, Liquid | 716.24 ± 14
343.4 K, Liquid | 706.6 ± 14
354.5 K, Liquid | 682.3 ± 15
373.3 K, Liquid | 660.16 ± 13
423.7 K, Liquid | 630.21 ± 13
475.8 K, Liquid | 588.61 ± 12
523.2 K, Liquid | 547.44 ± 12
571.8 K, Liquid | 487.16 ± 14
624.2 K, Liquid | 365.9 ± 16
673.2 K, Gas | 143.74 ± 8.3
700.3 K, Gas | 112.44 ± 7
723 K, Gas | 96.77 ± 5.3
